According to paper PMC6576746, “Rational discovery of dual-indication multi-target PDE/Kinase inhibitor for precision anti-cancer therapy using structural systems pharmacology” (PLoS Computational Biology, 2019):

How the values were obtained:
Experiment in all cases: biochemical
Parameters in all cases: DiscoverX KinomeScan competition binding assay across human kinases; per cent of control at 10 and 100 uM
[1] = target: T1, MEK5 (Homo sapiens, UniProt Q13163); conditions: competition binding, % of control
T1 construct: gene MAP2K5
T1 sequence (Q13163 whole entry): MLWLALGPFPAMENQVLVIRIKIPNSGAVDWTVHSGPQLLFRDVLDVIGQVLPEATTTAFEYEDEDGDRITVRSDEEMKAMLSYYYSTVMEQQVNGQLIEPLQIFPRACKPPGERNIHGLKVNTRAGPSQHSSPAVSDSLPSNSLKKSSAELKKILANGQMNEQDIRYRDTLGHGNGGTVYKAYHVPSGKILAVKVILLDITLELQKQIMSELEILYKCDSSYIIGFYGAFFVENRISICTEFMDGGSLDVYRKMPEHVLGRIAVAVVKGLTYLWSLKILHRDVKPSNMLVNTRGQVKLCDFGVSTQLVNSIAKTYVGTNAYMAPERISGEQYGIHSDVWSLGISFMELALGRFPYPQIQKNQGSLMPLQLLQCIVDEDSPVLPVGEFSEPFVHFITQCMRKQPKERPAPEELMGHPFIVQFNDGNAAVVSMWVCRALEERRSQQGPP
Outline: (§1)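 Binding is expressed as %control, normalised between positive and negative control signals. The compound (levosimendan) was tested at 10 μM and 100 μM in the DiscoverX KinomeScan competition binding format against human kinases.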

[2] = target: T2, MRCKA (Homo sapiens, UniProt Q5VT25); conditions: competition binding, % of control; read-out: Percent Control (100 uM Levosimendan)
T2 construct: gene CDC42BPA
Outline: as §1

[3] = target: CAMK1 (Homo sapiens, UniProt Q14012); conditions: competition binding, % of control; read-out: Percent Control (100 uM Levosimendan)
Outline: as §1

[4] = target: BRSK2 (Homo sapiens, UniProt Q8IWQ3); conditions: competition binding, % of control; read-out: Percent Control (100 uM Levosimendan)
Outline: as §1

[5] = target: BMPR1B (Homo sapiens, UniProt O00238); conditions: competition binding, % of control
Chain of BMPR1B (O00238 whole entry): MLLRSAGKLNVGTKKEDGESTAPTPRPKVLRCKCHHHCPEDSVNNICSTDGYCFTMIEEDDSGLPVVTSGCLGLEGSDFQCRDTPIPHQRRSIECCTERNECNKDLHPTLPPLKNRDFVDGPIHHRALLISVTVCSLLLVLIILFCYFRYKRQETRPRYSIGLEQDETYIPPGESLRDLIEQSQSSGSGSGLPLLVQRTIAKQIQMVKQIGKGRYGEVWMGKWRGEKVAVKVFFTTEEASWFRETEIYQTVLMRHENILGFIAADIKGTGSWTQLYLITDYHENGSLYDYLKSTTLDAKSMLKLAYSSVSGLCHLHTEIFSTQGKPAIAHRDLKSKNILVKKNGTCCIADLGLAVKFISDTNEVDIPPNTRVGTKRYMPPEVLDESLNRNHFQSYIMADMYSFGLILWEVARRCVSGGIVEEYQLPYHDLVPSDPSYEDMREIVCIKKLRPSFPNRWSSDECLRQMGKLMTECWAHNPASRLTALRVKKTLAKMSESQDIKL
Outline: as §1

[6] = target: PKN1 (Homo sapiens, UniProt Q16512); conditions: competition binding, % of control; read-out: Percent Control (100 uM Levosimendan)
Chain of PKN1 (Q16512 whole entry): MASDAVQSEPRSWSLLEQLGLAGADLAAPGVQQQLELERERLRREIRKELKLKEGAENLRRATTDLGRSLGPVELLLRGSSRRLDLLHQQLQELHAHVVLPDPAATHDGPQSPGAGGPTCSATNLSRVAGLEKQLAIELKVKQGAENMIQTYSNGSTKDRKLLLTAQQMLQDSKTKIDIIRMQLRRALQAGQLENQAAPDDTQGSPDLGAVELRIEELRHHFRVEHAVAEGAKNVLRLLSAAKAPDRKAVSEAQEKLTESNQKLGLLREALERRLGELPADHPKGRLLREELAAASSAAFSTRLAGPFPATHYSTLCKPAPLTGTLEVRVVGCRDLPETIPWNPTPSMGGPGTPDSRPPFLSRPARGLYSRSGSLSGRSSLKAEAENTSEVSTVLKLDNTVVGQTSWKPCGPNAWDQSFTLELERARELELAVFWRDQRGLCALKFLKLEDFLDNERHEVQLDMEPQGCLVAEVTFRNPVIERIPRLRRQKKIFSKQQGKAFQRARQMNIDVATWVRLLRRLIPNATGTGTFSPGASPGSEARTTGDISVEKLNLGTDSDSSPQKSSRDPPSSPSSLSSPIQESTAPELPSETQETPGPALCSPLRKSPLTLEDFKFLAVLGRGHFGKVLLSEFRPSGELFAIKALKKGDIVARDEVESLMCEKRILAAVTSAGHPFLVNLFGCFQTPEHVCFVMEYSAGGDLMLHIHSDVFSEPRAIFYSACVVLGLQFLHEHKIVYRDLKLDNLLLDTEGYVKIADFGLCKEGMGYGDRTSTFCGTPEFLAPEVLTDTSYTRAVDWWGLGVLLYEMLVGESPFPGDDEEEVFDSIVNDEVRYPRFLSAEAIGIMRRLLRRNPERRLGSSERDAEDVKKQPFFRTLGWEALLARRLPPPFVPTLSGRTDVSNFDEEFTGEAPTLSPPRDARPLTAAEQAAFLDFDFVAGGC
Outline: as §1

[7] = target: T3, ABL1(F317L)-nonphosphorylated (Homo sapiens, UniProt P00519, F317L); conditions: competition binding, % of control; read-out: Percent Control (100 uM Levosimendan)
T3 construct: nonphosphorylated
Outline: as §1

[8] = target: ACVRL1 (Homo sapiens, UniProt P37023); conditions: competition binding, % of control
Chain of ACVRL1 (P37023 whole entry): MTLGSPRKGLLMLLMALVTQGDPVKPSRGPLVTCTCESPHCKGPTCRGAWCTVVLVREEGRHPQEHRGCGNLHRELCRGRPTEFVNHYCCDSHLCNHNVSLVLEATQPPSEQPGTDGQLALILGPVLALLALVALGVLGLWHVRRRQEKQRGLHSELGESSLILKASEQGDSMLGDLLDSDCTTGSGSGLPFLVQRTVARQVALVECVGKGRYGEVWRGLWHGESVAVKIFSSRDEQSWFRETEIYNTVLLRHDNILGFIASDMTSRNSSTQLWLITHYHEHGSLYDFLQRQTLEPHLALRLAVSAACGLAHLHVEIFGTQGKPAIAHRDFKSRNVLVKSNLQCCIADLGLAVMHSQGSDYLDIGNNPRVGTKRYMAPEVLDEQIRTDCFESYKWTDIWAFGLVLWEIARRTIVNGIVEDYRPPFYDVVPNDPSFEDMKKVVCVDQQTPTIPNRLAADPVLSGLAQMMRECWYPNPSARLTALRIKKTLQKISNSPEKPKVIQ
Outline: as §1

[9] = target: T4, ABL1(M351T)-phosphorylated (Homo sapiens, UniProt P00519, M351T); conditions: competition binding, % of control; read-out: Percent Control (100 uM Levosimendan)
T4 construct: phosphorylated
Outline: as §1

[10] = target: GSK3A (Homo sapiens, UniProt P49840); conditions: competition binding, % of control; read-out: Percent Control (100 uM Levosimendan)
Outline: as §1

[11] = target: PIP5K1C (Homo sapiens, UniProt O60331); conditions: competition binding, % of control
Chain of PIP5K1C (O60331 whole entry): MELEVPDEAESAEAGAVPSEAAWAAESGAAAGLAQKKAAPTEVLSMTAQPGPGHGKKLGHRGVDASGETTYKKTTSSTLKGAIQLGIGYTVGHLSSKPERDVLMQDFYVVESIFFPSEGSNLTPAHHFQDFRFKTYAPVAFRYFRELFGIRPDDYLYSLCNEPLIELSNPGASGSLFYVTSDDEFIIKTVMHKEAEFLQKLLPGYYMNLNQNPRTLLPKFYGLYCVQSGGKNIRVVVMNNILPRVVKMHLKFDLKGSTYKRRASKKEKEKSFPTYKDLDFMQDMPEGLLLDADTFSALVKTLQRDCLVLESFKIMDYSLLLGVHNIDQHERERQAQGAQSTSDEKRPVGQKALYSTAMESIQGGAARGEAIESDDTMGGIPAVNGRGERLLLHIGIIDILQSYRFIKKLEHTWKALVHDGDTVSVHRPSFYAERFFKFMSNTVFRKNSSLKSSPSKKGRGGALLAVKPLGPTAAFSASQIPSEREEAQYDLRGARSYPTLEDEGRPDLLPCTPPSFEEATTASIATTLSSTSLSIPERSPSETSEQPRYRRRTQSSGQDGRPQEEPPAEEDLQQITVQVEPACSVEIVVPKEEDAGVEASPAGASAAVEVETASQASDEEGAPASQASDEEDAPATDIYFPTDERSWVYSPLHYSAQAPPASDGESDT
Outline: as §1

[12] = target: T5, VEGFR2 (Homo sapiens, UniProt P35968); conditions: competition binding, % of control; read-out: Percent Control (100 uM Levosimendan)
T5 construct: gene KDR
Outline: as §1

[13] = target: T6, RIPK5 (Homo sapiens, UniProt Q6XUX3); conditions: competition binding, % of control; read-out: Percent Control (100 uM Levosimendan)
T6 construct: gene DSTYK
Outline: as §1

[14] = target: T7, VPS34 (Homo sapiens, UniProt Q8NEB9); conditions: competition binding, % of control; read-out: Percent Control (100 uM Levosimendan)
T7 construct: gene PIK3C3
T7 sequence (Q8NEB9 whole entry): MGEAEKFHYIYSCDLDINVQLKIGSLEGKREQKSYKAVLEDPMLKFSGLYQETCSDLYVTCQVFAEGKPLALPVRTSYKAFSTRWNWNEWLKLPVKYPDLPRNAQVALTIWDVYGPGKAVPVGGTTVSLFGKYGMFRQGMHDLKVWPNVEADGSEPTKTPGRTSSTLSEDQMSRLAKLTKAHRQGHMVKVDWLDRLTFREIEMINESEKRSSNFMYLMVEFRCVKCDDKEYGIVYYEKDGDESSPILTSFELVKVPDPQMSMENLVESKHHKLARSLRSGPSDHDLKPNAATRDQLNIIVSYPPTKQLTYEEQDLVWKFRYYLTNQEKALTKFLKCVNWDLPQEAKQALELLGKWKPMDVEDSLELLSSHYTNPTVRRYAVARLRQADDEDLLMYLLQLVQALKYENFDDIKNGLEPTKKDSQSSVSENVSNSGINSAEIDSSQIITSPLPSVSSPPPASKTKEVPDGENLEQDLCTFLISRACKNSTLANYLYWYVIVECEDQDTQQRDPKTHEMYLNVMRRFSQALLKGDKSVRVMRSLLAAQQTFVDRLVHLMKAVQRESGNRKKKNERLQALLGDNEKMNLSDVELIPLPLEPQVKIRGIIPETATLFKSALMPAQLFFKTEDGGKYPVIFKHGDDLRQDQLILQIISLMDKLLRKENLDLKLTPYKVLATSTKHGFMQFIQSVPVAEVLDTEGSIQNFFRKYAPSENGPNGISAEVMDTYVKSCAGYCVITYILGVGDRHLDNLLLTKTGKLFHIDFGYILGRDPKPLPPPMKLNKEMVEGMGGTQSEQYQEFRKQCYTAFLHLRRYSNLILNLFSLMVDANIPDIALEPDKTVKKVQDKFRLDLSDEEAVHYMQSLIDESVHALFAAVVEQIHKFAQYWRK
Outline: as §1

[15] = target: MST1R (Homo sapiens, UniProt Q04912); conditions: competition binding, % of control; read-out: Percent Control (100 uM Levosimendan)
Outline: as §1

[16] = target: LATS1 (Homo sapiens, UniProt O95835); conditions: competition binding, % of control; read-out: Percent Control (100 uM Levosimendan)
Outline: as §1

[17] = target: GRK2 (Homo sapiens, UniProt P25098); conditions: competition binding, % of control; read-out: Percent Control (100 uM Levosimendan)
Outline: as §1

[18] = target: T8, MLK3 (Homo sapiens, UniProt Q16584); conditions: competition binding, % of control; read-out: Percent Control (100 uM Levosimendan)
T8 construct: gene MAP3K11
T8 sequence (Q16584 whole entry): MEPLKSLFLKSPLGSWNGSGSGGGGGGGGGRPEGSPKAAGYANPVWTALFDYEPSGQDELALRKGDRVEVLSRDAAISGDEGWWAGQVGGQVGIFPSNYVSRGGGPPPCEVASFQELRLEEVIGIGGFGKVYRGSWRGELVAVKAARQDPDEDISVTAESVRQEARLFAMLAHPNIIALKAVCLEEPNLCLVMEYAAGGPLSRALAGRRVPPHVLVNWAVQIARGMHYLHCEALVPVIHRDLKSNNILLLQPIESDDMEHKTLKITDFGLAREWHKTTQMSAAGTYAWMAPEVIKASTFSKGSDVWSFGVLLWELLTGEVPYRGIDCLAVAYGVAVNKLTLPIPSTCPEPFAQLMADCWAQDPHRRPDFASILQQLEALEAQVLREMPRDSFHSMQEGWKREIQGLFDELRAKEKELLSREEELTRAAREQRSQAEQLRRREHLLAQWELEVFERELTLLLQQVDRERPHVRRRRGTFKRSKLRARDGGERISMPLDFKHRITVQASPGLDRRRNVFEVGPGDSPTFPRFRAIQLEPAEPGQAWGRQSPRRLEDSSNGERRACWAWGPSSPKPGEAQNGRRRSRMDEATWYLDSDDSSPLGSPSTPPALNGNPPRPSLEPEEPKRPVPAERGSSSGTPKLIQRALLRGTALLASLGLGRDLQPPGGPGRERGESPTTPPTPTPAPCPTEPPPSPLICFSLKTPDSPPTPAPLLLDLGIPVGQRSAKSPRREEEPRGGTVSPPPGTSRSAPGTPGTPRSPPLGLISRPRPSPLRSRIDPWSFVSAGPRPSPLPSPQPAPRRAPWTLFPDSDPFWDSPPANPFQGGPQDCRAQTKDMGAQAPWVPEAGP
Outline: as §1

[19] = target: T9, SNARK (Homo sapiens, UniProt Q9H093); conditions: competition binding, % of control; read-out: Percent Control (100 uM Levosimendan)
T9 construct: gene NUAK2
Outline: as §1

[20] = read-out: Percent Control (10 uM Levosimendan)
[21] = read-out: Percent Control (100 uM Levosimendan)

C[C@@H]1CC(=O)NN=C1c1ccc(NN=C(C#N)C#N)cc1 [levosimendan] was tested, and the remaining binding at 10 µM [1, 20] was 17%, the remaining binding at 100 µM [1, 21] was 2.6% and the remaining binding at 100 µM [2] was 90%. For the same molecule, the remaining binding at 100 µM [3] was 77%, the remaining binding at 100 µM [4] was 100% and the remaining binding at 10 µM [5, 20] was 82%. For the same molecule, the remaining binding at 100 µM [5, 21] was 36%, the remaining binding at 100 µM [6] was 100% and the remaining binding at 100 µM [7] was 100%. It also gave a remaining binding at 10 µM [8, 20] of 71%, a remaining binding at 100 µM [8, 21] of 30% and a remaining binding at 100 µM [9] of 79%. It also gave a remaining binding at 100 µM [10] of 100%, a remaining binding at 10 µM [11, 20] of 91% and a remaining binding at 100 µM [11, 21] of 50%. For the same molecule, the remaining binding at 100 µM [12] was 100%, the remaining binding at 100 µM [13] was 60% and the remaining binding at 100 µM [14] was 100%. For the same molecule, the remaining binding at 100 µM [15] was 87%, the remaining binding at 100 µM [16] was 100% and the remaining binding at 100 µM [17] was 100%. The remaining binding at 100 µM [18] was 73% and the remaining binding at 100 µM [19] was 100%.
